Measured values from US20130158007A1 (KEMPHARM, INC., priority 2010, published 2013).
Structures can show the parent of a compound that is named as a salt.

Experiments:
[1] = target: serotonin 5-HT2B receptor (Homo sapiens, UniProt P41595); settings: cited from earlier work
[2] = target: serotonin 5-HT1E receptor (Homo sapiens, UniProt P28566); settings: cited from earlier work
M1 muscarinic receptor = target: T1, M1 muscarinic receptor (Homo sapiens, UniProt P11229); settings: cited from earlier work
T1 sequence (P11229 1-460): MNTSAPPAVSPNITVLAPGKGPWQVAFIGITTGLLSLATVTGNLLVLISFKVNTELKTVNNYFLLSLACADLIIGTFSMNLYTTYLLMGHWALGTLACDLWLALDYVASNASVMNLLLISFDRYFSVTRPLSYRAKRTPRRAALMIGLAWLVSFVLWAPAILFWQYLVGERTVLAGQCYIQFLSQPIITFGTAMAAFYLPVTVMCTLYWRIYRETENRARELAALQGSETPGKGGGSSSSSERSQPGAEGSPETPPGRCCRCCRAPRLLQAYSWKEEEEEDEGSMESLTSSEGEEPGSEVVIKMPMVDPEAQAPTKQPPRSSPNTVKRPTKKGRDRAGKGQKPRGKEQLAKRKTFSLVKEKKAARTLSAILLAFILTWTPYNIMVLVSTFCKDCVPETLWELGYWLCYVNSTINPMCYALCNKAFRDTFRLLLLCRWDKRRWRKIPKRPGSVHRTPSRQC

M3 muscarinic receptor = M3 muscarinic receptor (Homo sapiens, UniProt P20309); settings: cited from earlier work
Sequence of M3 muscarinic receptor (P20309 whole entry): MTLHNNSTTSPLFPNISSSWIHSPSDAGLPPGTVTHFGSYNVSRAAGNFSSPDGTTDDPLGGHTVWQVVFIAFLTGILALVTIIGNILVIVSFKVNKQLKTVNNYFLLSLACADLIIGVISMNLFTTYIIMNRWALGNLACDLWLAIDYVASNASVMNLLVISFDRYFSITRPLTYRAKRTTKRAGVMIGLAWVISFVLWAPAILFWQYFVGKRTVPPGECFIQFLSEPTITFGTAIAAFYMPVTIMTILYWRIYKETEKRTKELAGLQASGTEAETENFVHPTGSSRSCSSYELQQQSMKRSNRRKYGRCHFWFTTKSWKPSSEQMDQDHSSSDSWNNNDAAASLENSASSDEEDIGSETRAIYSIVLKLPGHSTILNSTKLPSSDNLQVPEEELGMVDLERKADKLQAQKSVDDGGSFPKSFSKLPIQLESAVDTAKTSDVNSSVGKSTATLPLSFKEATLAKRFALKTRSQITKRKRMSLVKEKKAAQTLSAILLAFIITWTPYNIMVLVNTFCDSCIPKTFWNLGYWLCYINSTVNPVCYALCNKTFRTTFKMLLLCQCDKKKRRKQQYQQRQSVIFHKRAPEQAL

5-HT1A receptor = target: T2, 5-HT1A receptor (Homo sapiens, UniProt P08908); settings: relative to quetiapine; cited from earlier work
T2 sequence (P08908 1-422): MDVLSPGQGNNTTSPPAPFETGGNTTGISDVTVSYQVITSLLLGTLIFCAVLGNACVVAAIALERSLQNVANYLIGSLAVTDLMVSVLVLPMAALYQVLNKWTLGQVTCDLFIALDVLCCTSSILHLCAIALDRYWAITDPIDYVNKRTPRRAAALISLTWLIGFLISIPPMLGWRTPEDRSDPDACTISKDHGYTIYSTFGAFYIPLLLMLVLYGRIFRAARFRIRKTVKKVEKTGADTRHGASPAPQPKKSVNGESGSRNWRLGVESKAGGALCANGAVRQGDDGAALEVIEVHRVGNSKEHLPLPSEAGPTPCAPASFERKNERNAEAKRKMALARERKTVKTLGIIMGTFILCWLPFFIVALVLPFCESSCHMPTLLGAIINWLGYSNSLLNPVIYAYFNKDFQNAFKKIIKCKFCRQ

histamine H1 receptor = histamine H1 receptor (Homo sapiens, UniProt P35367); settings: cited from earlier work
Sequence of histamine H1 receptor (P35367 whole entry, species assumed): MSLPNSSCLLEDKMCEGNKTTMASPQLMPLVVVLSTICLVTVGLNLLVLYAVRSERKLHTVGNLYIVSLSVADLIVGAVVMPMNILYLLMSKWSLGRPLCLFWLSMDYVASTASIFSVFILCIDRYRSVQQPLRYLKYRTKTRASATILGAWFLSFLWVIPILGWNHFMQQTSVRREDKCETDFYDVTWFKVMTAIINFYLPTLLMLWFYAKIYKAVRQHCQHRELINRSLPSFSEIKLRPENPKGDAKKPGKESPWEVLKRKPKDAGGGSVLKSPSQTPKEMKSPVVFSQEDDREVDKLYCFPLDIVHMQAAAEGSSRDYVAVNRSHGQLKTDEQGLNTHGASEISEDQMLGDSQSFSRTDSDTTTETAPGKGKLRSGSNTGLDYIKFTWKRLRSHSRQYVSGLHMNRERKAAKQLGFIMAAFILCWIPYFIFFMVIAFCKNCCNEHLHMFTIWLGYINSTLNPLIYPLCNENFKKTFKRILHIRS

[3] = target: norepinephrine reuptake transporter (NET) (Homo sapiens, UniProt P23975); settings: cited from earlier work
Sequence of norepinephrine reuptake transporter (NET) (P23975 whole entry): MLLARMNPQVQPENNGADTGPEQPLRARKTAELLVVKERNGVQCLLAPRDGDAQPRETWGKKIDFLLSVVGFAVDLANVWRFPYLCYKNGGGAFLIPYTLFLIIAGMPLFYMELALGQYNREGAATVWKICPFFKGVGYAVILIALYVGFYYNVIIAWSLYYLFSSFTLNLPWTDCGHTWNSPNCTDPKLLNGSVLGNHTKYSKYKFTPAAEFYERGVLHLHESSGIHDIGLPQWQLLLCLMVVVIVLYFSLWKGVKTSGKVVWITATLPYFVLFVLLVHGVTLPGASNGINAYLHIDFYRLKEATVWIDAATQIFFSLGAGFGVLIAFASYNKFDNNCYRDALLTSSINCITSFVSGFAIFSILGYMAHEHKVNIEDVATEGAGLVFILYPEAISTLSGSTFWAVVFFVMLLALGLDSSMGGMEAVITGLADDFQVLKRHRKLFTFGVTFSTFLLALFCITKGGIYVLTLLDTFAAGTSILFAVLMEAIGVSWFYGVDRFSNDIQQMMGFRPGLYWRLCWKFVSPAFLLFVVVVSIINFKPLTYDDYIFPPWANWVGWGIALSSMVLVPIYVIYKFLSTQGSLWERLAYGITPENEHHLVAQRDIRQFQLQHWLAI

5-HT2A receptor = 5-HT2A receptor (Homo sapiens, UniProt P28223); settings: cited from earlier work
Sequence of 5-HT2A receptor (P28223 whole entry): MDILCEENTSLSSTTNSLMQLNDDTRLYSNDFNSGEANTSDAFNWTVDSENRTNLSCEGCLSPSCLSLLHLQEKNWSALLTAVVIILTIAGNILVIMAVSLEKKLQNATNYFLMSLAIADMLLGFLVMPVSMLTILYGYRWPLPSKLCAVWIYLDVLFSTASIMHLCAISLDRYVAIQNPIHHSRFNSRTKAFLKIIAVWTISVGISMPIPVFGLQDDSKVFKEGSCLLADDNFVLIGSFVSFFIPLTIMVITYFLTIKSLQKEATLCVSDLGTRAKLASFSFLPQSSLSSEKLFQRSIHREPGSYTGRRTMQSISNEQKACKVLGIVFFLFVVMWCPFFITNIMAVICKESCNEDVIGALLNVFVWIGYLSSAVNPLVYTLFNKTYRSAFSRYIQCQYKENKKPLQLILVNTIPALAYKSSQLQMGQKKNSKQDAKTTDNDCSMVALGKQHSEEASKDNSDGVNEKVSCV

M5 muscarinic receptor = target: T3, M5 muscarinic receptor (Homo sapiens, UniProt P08912); settings: cited from earlier work
T3 sequence (P08912 1-532): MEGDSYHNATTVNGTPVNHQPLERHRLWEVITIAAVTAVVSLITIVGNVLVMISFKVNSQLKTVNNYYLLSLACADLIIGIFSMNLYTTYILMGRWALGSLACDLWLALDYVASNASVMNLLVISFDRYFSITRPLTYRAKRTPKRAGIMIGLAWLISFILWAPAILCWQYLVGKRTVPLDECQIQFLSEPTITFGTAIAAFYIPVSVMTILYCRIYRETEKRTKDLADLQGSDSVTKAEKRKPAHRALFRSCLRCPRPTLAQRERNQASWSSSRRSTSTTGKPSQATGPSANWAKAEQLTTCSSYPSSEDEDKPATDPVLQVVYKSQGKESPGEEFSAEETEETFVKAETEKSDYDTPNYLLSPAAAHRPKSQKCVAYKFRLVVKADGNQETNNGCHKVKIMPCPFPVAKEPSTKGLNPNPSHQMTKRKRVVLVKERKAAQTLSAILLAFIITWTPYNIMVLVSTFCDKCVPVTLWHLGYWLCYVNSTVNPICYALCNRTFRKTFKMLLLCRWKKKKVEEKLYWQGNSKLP

serotonin 5-HT7 receptor = serotonin 5-HT7 receptor (Homo sapiens, UniProt P34969); settings: cited from earlier work
Sequence of serotonin 5-HT7 receptor (P34969 whole entry): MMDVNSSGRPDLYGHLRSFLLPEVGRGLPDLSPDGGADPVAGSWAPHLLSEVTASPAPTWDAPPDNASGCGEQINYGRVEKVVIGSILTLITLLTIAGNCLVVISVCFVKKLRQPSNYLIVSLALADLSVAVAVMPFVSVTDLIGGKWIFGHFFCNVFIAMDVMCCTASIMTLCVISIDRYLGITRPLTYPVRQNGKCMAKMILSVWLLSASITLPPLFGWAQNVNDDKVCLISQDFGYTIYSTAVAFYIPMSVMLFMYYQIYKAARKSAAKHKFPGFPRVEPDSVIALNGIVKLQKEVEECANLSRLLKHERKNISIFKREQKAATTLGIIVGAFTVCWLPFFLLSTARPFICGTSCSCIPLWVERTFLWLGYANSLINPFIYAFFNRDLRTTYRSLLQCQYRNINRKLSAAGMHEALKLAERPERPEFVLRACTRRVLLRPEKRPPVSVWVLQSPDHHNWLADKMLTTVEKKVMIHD

[4] = target: T4, serotonin 5-HT1A receptor (Homo sapiens, UniProt P08908); settings: cited from earlier work
T4 sequence (P08908 1-422): T2 sequence (P08908 1-422)

α1B-adrenergic receptor = target: T5, α1B-adrenergic receptor (Homo sapiens, UniProt P35368); settings: cited from earlier work
T5 sequence (P35368 1-520): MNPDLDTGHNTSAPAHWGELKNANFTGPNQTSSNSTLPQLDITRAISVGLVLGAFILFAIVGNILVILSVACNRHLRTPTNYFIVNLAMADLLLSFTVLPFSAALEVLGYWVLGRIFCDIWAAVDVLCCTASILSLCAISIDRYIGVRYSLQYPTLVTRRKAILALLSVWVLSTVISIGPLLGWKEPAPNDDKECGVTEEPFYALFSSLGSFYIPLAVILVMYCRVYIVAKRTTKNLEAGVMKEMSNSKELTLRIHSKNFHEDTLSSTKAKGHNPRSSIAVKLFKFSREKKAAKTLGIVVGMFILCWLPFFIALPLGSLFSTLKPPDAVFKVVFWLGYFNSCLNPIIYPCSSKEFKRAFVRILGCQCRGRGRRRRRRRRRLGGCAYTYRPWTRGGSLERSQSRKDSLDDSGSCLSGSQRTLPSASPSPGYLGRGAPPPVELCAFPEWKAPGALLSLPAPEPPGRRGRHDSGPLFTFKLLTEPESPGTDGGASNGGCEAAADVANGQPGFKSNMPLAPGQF

[5] = oral solution
α2-adrenergic receptors = settings: cited from earlier work
leptin = settings: chronic oral administration for 6 weeks; cited from earlier work
a1-adrenergic receptors = settings: cited from earlier work
[6] = cited from earlier work
dopaminergic D1 receptor = dopaminergic D1 receptor (Homo sapiens, UniProt P21728); settings: cerebral receptors; cited from earlier work
Sequence of dopaminergic D1 receptor (P21728 whole entry): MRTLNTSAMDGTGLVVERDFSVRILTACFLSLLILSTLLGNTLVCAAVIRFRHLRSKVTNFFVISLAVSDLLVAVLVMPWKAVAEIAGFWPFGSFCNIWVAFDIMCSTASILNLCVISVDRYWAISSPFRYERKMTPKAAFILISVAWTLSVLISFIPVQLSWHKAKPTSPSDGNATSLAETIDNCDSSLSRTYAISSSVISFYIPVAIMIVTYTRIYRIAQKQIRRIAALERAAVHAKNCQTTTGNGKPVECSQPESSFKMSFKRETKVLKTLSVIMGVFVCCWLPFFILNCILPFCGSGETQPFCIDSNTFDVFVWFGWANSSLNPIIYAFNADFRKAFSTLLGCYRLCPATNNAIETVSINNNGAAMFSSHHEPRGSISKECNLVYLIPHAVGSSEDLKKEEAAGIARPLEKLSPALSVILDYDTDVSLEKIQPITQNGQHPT

dopaminergic D2 receptor = dopaminergic D2 receptor (Homo sapiens, UniProt P14416); settings: cerebral receptors; cited from earlier work
Sequence of dopaminergic D2 receptor (P14416 whole entry): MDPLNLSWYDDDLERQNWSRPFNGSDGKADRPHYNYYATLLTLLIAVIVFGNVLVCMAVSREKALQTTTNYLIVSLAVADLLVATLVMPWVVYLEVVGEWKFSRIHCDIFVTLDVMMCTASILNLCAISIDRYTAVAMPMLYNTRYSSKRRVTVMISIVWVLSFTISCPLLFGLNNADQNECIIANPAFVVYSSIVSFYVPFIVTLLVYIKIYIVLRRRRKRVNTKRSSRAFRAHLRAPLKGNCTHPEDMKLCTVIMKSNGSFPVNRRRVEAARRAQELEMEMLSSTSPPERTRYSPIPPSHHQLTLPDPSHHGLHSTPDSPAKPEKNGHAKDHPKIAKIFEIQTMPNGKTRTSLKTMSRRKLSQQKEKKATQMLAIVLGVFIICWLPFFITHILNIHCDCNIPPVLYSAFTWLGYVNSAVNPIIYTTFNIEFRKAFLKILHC

[7] = clinical trials; cited from earlier work
[8] = in vivo; cited from earlier work
[9] = patients, cited from earlier work

Sequence of serotonin 5-HT1E receptor (P28566 whole entry): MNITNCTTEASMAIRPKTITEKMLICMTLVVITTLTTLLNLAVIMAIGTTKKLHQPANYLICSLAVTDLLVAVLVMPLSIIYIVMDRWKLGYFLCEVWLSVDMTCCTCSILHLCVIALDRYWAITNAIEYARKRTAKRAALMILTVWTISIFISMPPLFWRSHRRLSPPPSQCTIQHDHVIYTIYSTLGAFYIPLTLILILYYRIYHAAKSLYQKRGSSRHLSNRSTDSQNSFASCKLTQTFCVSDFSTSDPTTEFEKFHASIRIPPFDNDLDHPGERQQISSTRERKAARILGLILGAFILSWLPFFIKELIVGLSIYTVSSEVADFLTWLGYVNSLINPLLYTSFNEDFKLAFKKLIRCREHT
Sequence of serotonin 5-HT2B receptor (P41595 whole entry): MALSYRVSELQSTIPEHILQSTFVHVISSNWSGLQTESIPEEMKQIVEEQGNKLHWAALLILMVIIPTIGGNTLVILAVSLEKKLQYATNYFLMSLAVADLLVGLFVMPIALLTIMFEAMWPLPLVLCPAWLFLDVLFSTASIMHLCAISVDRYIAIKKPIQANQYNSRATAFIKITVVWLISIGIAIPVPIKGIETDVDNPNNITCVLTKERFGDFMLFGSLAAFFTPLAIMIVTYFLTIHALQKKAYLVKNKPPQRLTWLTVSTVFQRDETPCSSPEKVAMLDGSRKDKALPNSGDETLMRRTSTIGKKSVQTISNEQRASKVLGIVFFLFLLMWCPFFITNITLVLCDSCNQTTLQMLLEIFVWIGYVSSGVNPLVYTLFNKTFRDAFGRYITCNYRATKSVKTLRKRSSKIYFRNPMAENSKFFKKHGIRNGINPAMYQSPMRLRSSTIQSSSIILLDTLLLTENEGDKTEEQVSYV

SMILES: c1ccc2c(c1)N=C(N1CCNCC1)c1ccccc1S2 [N-desalkyl-quetiapine]
- affinity [1]: moderate affinities
- affinity [2]: moderate affinities
- affinity (M1 muscarinic receptor): moderate affinities
- affinity (M3 muscarinic receptor): moderate affinities
- potency at the 5-HT1A receptor, fold more potent than quetiapine (5-HT1A receptor): 10 fold
- affinity (histamine H1 receptor): high affinity
- affinity [3]: moderate affinities
- avidity for inhibiting human NET, fold higher than quetiapine ([3]; relative to quetiapine): about 100 fold
- affinity (5-HT2A receptor): moderate affinities
- affinity (M5 muscarinic receptor): moderate affinities
- affinity (serotonin 5-HT7 receptor): moderate affinities
- affinity [4]: moderate affinities
- affinity (α1B-adrenergic receptor): moderate affinities

SMILES: OCCOCCN1CCN(C2=Nc3ccccc3Sc3ccccc32)CC1 [quetiapine fumarate]
- solubility for dosing via oral gavage in rats [5]: not soluble enough

SMILES: OCCOCCN1CCN(C2=Nc3ccccc3Sc3ccccc32)CC1 [quetiapine, 2-(2-(4-(dibenzo[b,f][1,4]thiazepin-11-yl)piperazin-1-yl)ethoxy)ethanol]
- affinity (α2-adrenergic receptors): moderate affinity
- increase in leptin release (leptin): about 37%
- affinity (a1-adrenergic receptors): moderate affinity
- terminal half-life time for elimination ([6]; in vivo): about 7 hours
- Absolute bioavailability ([6]; oral): 9%
- affinity (dopaminergic D1 receptor): major affinity
- affinity (dopaminergic D2 receptor): major affinity
- prolongation of the QT interval [7]: small insignificant prolongations

SMILES: CCCC(CCC)C(=O)O [valproic acid, 2-propylpentanoic acid]
- response rate in bipolar depression [8]: ~30%
- time to response ([9]; acute mania): 1-2 weeks
- response rate in acute mania ([9]; placebo effect 20-30%): around 50%
